Data on four compounds can be found in US6740645B1, “17β-acyl-17α-propynyl-11β-(cyclic amino) aryl steroids and their derivatives having antagonist hormonal properties” (Research Triangle Institute, priority 1999, dated 2004).

The test concerns rabbit uterus. In words: anti-McGinty test for antiprogestational activity (McPhail Index). Format: in vivo. To be noted: for McPhail Index: estrogen-primed immature female rabbits, n = 3. On the procedure:
Biological activity was examined by means of the anti-McGinty test for antiprogestational activity. Immature female rabbits weighing 1000 to 1100 grams were primed with estrogen (5 μg of estradiol in sesame oil as vehicle, given subcutaneously) for 6 days, followed by a surgical procedure to introduce the test compounds into the uterine horn [see for example Teruhiko Tamaya, et al., Local progestational and antiprogestational effects of steroids and their metabolites on the rabbit uterus. Japanese Journal of Fertility and Sterility 24:48-51 (1979)]. A single dose of test compound in sesame oil as vehicle, accompanied by a single dose of progesterone (0.3 μg in sesame oil as vehicle) was given. On the third day (dosing being day one) the animals were sacrificed. The uteri were then removed, weighed and a section was kept in 10% formalin for microslide preparation for McPhail Index [M. K. McPhail, The Journal of Physiology, 83: 10 (1934)] determination. […] Antiprogestational compounds should block the effect of progesterone on the McPhail Index, which is zero in the absence of progesterone.

Setting [1] is: total dose 0.3 (μg) of test compound + progesterone 0.3 μg, single dose into uterine horn.
Setting [2] is: total dose 3 of test compound + progesterone 0.3 μg, single dose into uterine horn.
Setting [3] is: total dose 30 of test compound + progesterone 0.3 μg, single dose into uterine horn.

Regarding `C#CC1(C(C)=O)CCC2C3CCC4=CC(=O)CCC4=C3C(c3ccc(N4CCCCC4)cc3)CC21C` (stereo not drawn) [RTI-6617-048, 11β-[4-(N-Piperidino)phenyl]-17α-ethynyl-19-norpregna-4,9-diene-3,20-dione], the “McPhail Index” value is listed as 1.94 +/− 0.31 under setting [1], 0.89 +/− 0.3 under setting [2] and 0.0 +/− 0.0 under setting [3].

As for `CC(=O)[C@H]1CC[C@H]2[C@@H]3CCC4=CC(=O)CC[C@]4(C)[C@H]3CC[C@]12C` [Progesterone, progesterone], for the setting “progesterone (P) alone, total dose 0.3 (μg), uterine horn”, the “McPhail Index” value is 2.2 +/− 0.3.

Turning to `CC#CC1(C(C)=O)CCC2C3CCC4=CC(=O)CCC4=C3C(c3ccc(N4CCCCC4)cc3)CC21C` (stereo not drawn) [RTI-6617-041, 11β-[4-(N-piperidino)phenyl]-17α-(1-propynyl)-19-norpregna-4,9-diene-3,20-dione], the “antiprogestational effect (in words)” value (0.3 μg dose, anti-McGinty test) is reported as “marked effect”. Further, under “anti-McGinty test, Table 1”, the “antiprogestational potency compared with RTI-6617-048 and RTI-6617-040 (in words)” value was “markedly more potent”. Besides, the “McPhail Index” value reads like this: under setting [1], 0.78 +/− 0.21; under setting [2], 0.0 +/− 0.0; under setting [3], 0.0 +/− 0.0.

Turning to `CC#C[C@]1(C(C)=O)CC[C@H]2[C@@H]3CCC4=CC(=O)CCC4=C3[C@@H](c3ccc(N(C)C)cc3)C[C@@]21C` [RTI-6617-040, 11β-[4-(N,N-Dimethylamino)phenyl]-17α-(1-propynyl)-19-norpregna-4,9-diene-3,20-dione], the “McPhail Index” value reads like this: under setting [1], 1.83 +/− 0.36; under setting [2], 0.0 +/− 0.0; under setting [3], 0.0 +/− 0.0.
